Results published in patent US9487561B2, “Biologically active complex and its preparation” (HAMLET PHARMA AB, priority 2010, dated 2016).
Changes are numbered by the printed parent chain.

Assays:
[1] = tested on: lung carcinoma, kidney carcinoma and lymphoma cells; experiment: HAMLET-induced change in cell morphology (light microscopy, real-time imaging); type: cell-based; conditions: light microscopy
Description: (§1) Cells were detached from cell culture flasks with versen (0.2 g EDTA in 200 ml H2O and 800 ml PBS), washed with PBS and resuspended in serum-free RPMI-1640. HAMLET dissolved in PBS was incubated with cells (0.5×10^6/ml for A549, A498 and HeLa cells; 1×10^6/ml for Jurkat) at 37° C. FCS was added after 1 hour. Cell death was quantified by trypan blue exclusion (Chroma Gesellschaft Schmid & Co) or by measuring ATP levels (ATPlite Kit, PerkinElmer, Infinite 200, Tecan). Light images were captured using the HOLOMONITOR™ M2 digital holographic microscope (Phase Holographic Imaging AB, Lund, Sweden).
For live cell imaging, cells were pre-treated with SB202190 for 30 minutes, nuclei were stained with Hoechst 33342 (Invitrogen) and Alexa-Fluor 568-labeled HAMLET (10% labeled HAMLET, Molecular Probes) was added in serum-free medium. FCS was added after 1 hour. Fluorescence was detected with pinhole settings corresponding to 1 airy unit. The cells were kept at 37° C., 5% CO2 and examined unfixed by LSM510 DUO confocal microscopy (Carl Zeiss).
To examine if the HAMLET-induced change in carcinoma cell morphology was modified by the channel inhibitors, lung carcinoma, kidney carcinoma and lymphoma cells were exposed to HAMLET in the presence or absence of ion channel inhibitors and examined by light microscopy (FIG. 2C).
To determine if p38 signaling was involved in cell death, we inhibited p38α and p38β in lung and kidney carcinoma and Jurkat lymphoma cells with two small-molecule p38 inhibitors: SB202190, a highly specific pyridinyl-imidazole inhibitor; and BIRB796, a diaryl urea compound, which bears little structural similarity to SB202190 (Fabian et al., 2005, Nature Biotechnology 23: 329-336), ([…] and FIG. 12B). […] The effect of p38 inhibition on cell death was also observed by real-time confocal imaging of lung carcinoma cells exposed to fluorescently labeled HAMLET.

[2] = tested on: A549 lung carcinoma cells; experiment: cell death assay (trypan blue exclusion, ATP levels); type: cell-based, human; conditions: 30 minutes pretreatment, HAMLET three hours
Description: as §1
For studies with inhibitors, cells were pretreated for 30 minutes. Inhibitors used were Gadolinium chloride (GdCl3, 100 μM), Barium chloride (BaCl2, 1 mM), Ruthenium red (30 μM), tetrandrine (10 μM) and amiloride (1 mM), all from Sigma Aldrich. For p38 inhibition, SB202190 (20 μM, Sigma Aldrich) or BIRB796 (10 μM, Axon Medchem) dissolved in DMSO was used. The wells were washed twice with PBS and new medium with inhibitor was added. For RNA interference, FlexiTube siRNA Premixes against MAPK11 (SI00606053), MAPK14 (SI00300769) and All Star Negative Control siRNA (SI03650318) from Qiagen was used. A549 forward was transfected using 25 nM final siRNA concentration in 24-well plate. After 48 hours, knockdown was examined by Western blot (anti-p38, 1:1000, Cell Signaling) and RT-PCR (MAPK14, QT00079345, QIAGEN).
To examine if functional ion channels are important for the tumoricidal activity of HAMLET, A549 lung carcinoma cells in suspension were pretreated with the channel inhibitors for 30 minutes and exposed to increasing concentrations of HAMLET for three hours.
A549 cells were seeded to a density of 0.8-1.0×10^6 cells/well in RPMI without FCS. Different volumes of HAMLET/oleate and oleic acid solutions were added. The cells were incubated for 1 hour at 37° C. 5% CO2 for 1 hour before 50 μl of FCS (5% final concentration) were added to the wells. The cells were then further incubated for additional 2 hours before the viability were determined by trypan blue exclusion and ATP measurements.

[3] = tested on: tumor cells; experiment: ion fluxes (Ca^2+, K^+, Na^+) quantified by fluorometry; type: cell-based; conditions: for fluxes of Ca^2+, K^+ and Na^+: FIG. 1B
Description: FIG. 1. […] (A, upper panels) Bright-field micrographs showing glass-adherent egg yolk vesicles before and after a 40-minute exposure to HAMLET, α-lactalbumin (HLA) or oleic acid (OA). Morphology was recorded by differential interference contrast microscopy. Scale bar […]. […] (A, lower panels) Effect of HAMLET on PMVs from lung carcinoma cells. PMVs on glass-bottom dishes were exposed to HAMLET, HLA or OA and stained with Nile red for confocal microscopy. […] As a control PMVs from healthy, differentiated cells on glass-bottom dishes were also exposed to HAMLET and stained with Nile red.
FIG. 7. Ion Fluxes. (A) Ion fluxes induced by HAMLET (35 μM) or it constituents (35 μM All-ala α-lactalbumin or 175 μM sodium oleate) were quantified by fluorometry, as described. […] (B) The global transcriptional response to HAMLET was studied by microarray and the top 3000 genes by variance visualized in a Heatmap. […] Darker bands=high expression, lighter bands=low.
(§2) The FLUXOR™ potassium (K^+) channel assay was performed on the TECAN infinite F200 (Tecan Group, Switzerland), according to the manufacturer's instructions (Invitrogen). Briefly, this involved FLUXOR™ loading buffer (Hank's Balanced Saline Solution, (HBSS) buffered with 20 mM HEPES and pH adjusted to 7.4 with NaOH. POWERLOAD™ concentrate and water-soluble Probenecid were used respectively to enhance the dye solubility and retention, respectively. Media were removed from the cell plates manually, and 80 μL of loading buffer containing the FLUXOR™ dye mix was applied to each well. Once inside the cell, the nonfluorescent AM ester form of the FLUXOR™ dye is cleaved by endogenous esterases into a thallium-sensitive indicator. The dye was loaded for 60 minutes at room temperature and then removed with the supernatant. After washing with dye-free PBS buffer, a final volume of 80 μL assay buffer containing water-soluble probenecid was added. Cells received one of the following channel inhibitors: 3.3 μL per well of 30 mM amiloride, 3.0 μL of 32 mM BaCl2, 1.8 μL of 5.4 mM gadolinium, 3 μL 3.2 mM tetrandrine and 2.3 μL of 2.6 mM ruthenium red, and were then incubated at room temperature (23-25° C.) for 30 minutes to allow equilibration of the test compounds. Prior to injection, stimulation buffer was prepared from the chloride-free buffer and thallium reagents provided in the kit as well as HAMLET, to achieve a final added concentrations of 2 mM free Tl+ and 35 μM HAMLET after 1:5 dilution upon injection of the stimulus buffer onto cells that had been loaded with FLUXOR™ dye.

[4] = tested on: A549 lung carcinoma cells; experiment: global transcriptional response, whole genome arrays (Affymetrix); type: cell-based, human; conditions: Example 5, Affymetrix U219, adjusted p-value <0.05 and log 2-foldchange of 1
Description: For the microarray analysis with ion channel inhibitors, 200,000 A549 cells/well were allowed to adhere overnight on a 6-well plate. After 1 hour of HAMLET treatment, the cells were lysed and RNA was extracted using the RNeasy Mini Kit (QIAGEN). The samples were sent to AROS Applied Biotechnology (Århus, Denmark) for analysis. Data was preprocessed using RMA implemented in the free software packages “affy” as provided by R and Bioconductor (<www.r-project.org>). Differentially expressed genes were identified using empirically Bayes adjusted t-statistics and characterized using the Functional Annotation Clustering Tool in the Database for Annotation, Visualization and Integrated Discovery (DAVID), (Dennis et al., 2003 Genome Biology 4(5): P3) and Ingenuity Pathway Analysis (Ingenuity Systems). All microarray data were registered into NCBI's Gene Expression Omnibus (GEO) database (<www.ncbi.nlm.nih.gov/projects/geo>) with accession numbers GSE23772.
To understand the mechanisms of carcinoma cell death and the contribution of ion channel activation, the global transcriptional response to HAMLET was examined, using whole genome arrays. A549 lung carcinoma cells were exposed to HAMLET (21 μM) for one hour and cells pretreated with amiloride were compared to cells in medium alone. […] An unbiased global overview of transcription was obtained by performing a hierarchical clustering of the top 3000 genes by variance and was visualized in a heatmap (FIG. 2D and FIG. 13). Genes with empirical Bayes adjusted p-values <0.05 and log 2 fold changes >1 were considered differentially expressed and were functionally characterized using Database for Annotation, Visualization and Integrated Discovery, (Dennis et al., supra, 2003) and Ingenuity Pathway Analysis.
In total 12 RNA samples were generated (triplicate of control, oleic Acid, HAMLET, and oleate-treated) and hybridized to Affymetrix Whole Genome microarrays U219. […] For statistical analysis normalized data were linear model fitted and Empirical Bayesian analysis, coupled with p-value adjustment, performed.

[5] = tested on: potassium channels in A549, lung carcinoma cell lines; experiment: FLUXOR potassium (K^+) channel assay, Thallium (Tl^+) indicator; type: cell-based, human; conditions: HAMLET 35 μM; oleate 175 μM (5× the HAMLET concentration); peptides mixed with oleate and immediately added
Description: as §2
To distinguish Ca^2+ mobilization from intracellular stores from the influx of extracellular Ca^2+, EGTA was then added to the cell medium. […] K^+ fluxes across tumor cell membranes were subsequently quantified under the same experimental conditions, using the fluorophore FLUXOR™, which fluoresces after thallium has entered cells through K^+ channels.
Potassium channel activity was therefore measured in A549, lung carcinoma cell lines using an indicator, which emits fluorescence signal upon entering the cells via opened potassium channels, Thallium (Tl^+) indicator (FIG. 18).

[6] = tested on: tumor cells; experiment: Tumoricidal Activity of Oleate-HAMLET (cell death method of Example 1); type: cell-based
[7] = 35 μM All-ala α-lactalbumin or 175 μM sodium oleate, FIG. 7A

Molecule: N.N.N.N.N.N.N.N.N.N.N.N.N.N.[Cl-].[Cl-].[Cl-].[Cl-].[Cl-].[Cl-].[O-2].[O-2].[Ru+3].[Ru+3].[Ru+4] [Ruthenium red, ammoniated ruthenium oxychloride]
- effect of ion channel inhibitor on HAMLET-induced change in cell morphology [1]: did not prevent the morphological changes
- effect of channel inhibitor on HAMLET-induced cell death [2]: no effect on viability

Molecule: CCCCCCCC/C=C\CCCCCCCC(=O)O [oleic acid, reference compound]
- fluxes of Ca^2+, K^+ and Na^+ [3]: no effect
- ion channel activating activity ([3]; at concentrations relevant for the HAMLET complex): did not show ion channel activating activity
- number of differentially expressed genes [4]: two

Molecule: Alpha 1: α-lactalbumin peptide, residue 1-40 (EQLTKCEVFRELKDLKGYGGVSLPEWVCTTFHTSGYDTQA; UniProt P00711 20-59, looked up, fragment)
- potassium channel activity (fluorescence signal) [5]: did not open potassium channels

Molecule: Alpha 2: α-lactalbumin peptide, residue 81-123 (LDDDLTDDIMCVKKILDKVGINYWLAHKALCSEKLDQWLCEKL; UniProt P00711 100-142, looked up, fragment)
- potassium channel activity (fluorescence signal) [5]: did not open potassium channels

Molecule: Beta: α-lactalbumin peptide, residue 41-80 (IVQNNDSTEYGLFQINNKIWCKDDQNPHSSNICNISCDKF; UniProt P00711 60-99, looked up, fragment)
- potassium channel activity (fluorescence signal) [5]: did not open potassium channels

B1: α-lactalbumin: native α-lactalbumin purified from human milk (protein, UniProt P00709 20-142, looked up)
Alpha-lactalbumin: KQFTKCELSQLLKDIDGYGGIALPELICTMFHTSGYDTQAIVENNESTEYGLFQISNKLWCKSSQVPQSRNICDISCDKFLDDDITDDIMCAKKILDIKGIDYWLAHKALCTEKLEQWLCEKL
- fluxes of Ca^2+, K^+ and Na^+ [3]: no effect

B2: α-lactalbumin^all-ala mutant: partially unfolded α-lactalbumin with all cysteines mutated to alanine (SEQ ID NO: 1 / 2) (protein)
chain 1: B1 Alpha-lactalbumin with C6A, C28A, C61A, C73A, C77A, C91A, C111A, C120A
chain 2: MKQFTKAELSQLLKDIDGYGGIALPELIATMFHTSGYDTQAIVENNESTEYGLFQISNKLWAKSSQVPQSRNIADISADKFLDDDITDDIMAAKKILDIKGIDYWLAHKALATEKLEQWLAEKL
- K^+ fluxes [3, 7]: comparable to HAMLET
- Na^+ or Ca^2+ fluxes [3, 7]: weaker

B3: Oleate-HAMLET: complex from EDTA treated alphalactalbumin converted on a column conditioned with sodium oleate (protein, UniProt P00709 20-142, looked up)
Alpha-lactalbumin: B1 Alpha-lactalbumin
modifications: sodium oleate complex
- tumoricidal activity compared with OA complex [6]: at least as tumoricidal as the OA complex
- Trypan blue ([6]; 0.5 mg/ml, Control 88): 1
- ATP Activity ([6]; 0.5 mg/ml, Control 100): 27%
